In patent publication US6770597B2, “Benzohydrazide derivatives as herbicides and desiccant compositions containing them” (Ishihara Sangyo Kaisha, Ltd., priority 2002, dated 2004):

Legend:
Format in all cases: in vivo
[1] = system: barnyardgrass (Echinochloa crus-galli, ECHCG); test: Greenhouse herbicide screen, post-emerge application, phytotoxicity rating; conditions: POST emergent, 14 days after application, scale 0-100
Description: (§1) A standard greenhouse herbicide activity screening system was used to evaluate the herbicidal efficacy and crop safety of these test compounds. Seven broadleaf weed species including redroot pigweed (Amaranthus retrofiexus, AMARE), velvetleaf (Abutilon theophrasti, ABUTH), sicklepod (Cassia obtusifolia, CASOB), ivyleaf morningglory (Ipomoea hederacea, IPOHE), lambsquarters (Chenopodium album, CHEAL), common ragweed (Ambrosia artemisiifolia L., AMBEL), and cocklebur (Xanthium strumarium, XANST) were used as test species. Four grass weed species including green foxtail (Setaria viridis, SETVI), barnyardgrass (Echinochloa crus-galli, ECHCG), johnsongrass (Sorghum halepense, SORHA), and large crabgrass (Digitaria sanguinalis, DIGSA) were also used. In addition, four crop species, field corn (Zea mays L., var. Dekalb 535, CORN), soybean (Glycine max L., var. Pella 86, SOY), upland rice (Oryza sp., var.Cocodrie, RICE) and wheat (Triticum aestivum L.) were included.
(§2) All plants were grown in 10 cm square plastic pots which were filled with a sandy loam soil mix. For pre-emerge tests, seeds were planted one day prior to application of the test compounds. For post-emerge tests, seeds were planted 8-21 days prior to the test to allow emergence and good foliage development prior to application of the test substances. At the time of the post-emerge application, plants of all species were usually at the 2-3 leaf stage of development.
(§3) All test compounds were dissolved in acetone and applied to the test units in a volume of 187 l/ha. Test materials were applied at rates ranging from 15 g ai/ha to 1000 g ai/ha using a track sprayer equipped with a TJ8001E even flow flat fan spray nozzle. Plants were arranged on a shelf so that the top of the canopy (post-emerge) or top of the soil surface (pre-emerge) was 40-45 cm below the nozzle. Pressurized air was used to force the test solution through the nozzle as it was mechanically advanced (via electrically driven chain drive) over the top of all test plants/pots. This application simulates a typical commercial field herbicide application.
(§4) Pre-emergence tests were top watered immediately after treatment to incorporate the test materials, then routinely top-watered for normal growth. Post-emerge test units were always bottom-watered.
(§5) At 14 days after application of the test materials, phytotoxicity ratings were recorded. A rating scale of 0-100 was used as previously described in Research Methods in Weed Science, 2nd edition, B. Truelove, Ed., Southern Weed Science Society, Auburn University, Auburn, Ala., 1977. Briefly, “0” corresponds to no damage and “100” corresponds to complete death of all plants in the test unit. This scale was used both to determine efficacy against weed species and damage to crop species. Herbicide activity data for various compounds of this invention, which are shown by compound No. in Tables 1-12, are shown in Tables 13 and 14.

[2] = system: cocklebur (Xanthium strumarium, XANST); test: as above; conditions: POST emergent, 14 days after application, scale 0-100
Description: as §1, §2, §3, §4, §5

[3] = system: common ragweed (Ambrosia artemisiifolia L., AMBEL); test: as above; conditions: POST emergent, 14 days after application, scale 0-100
Description: as §1, §2, §3, §4, §5

[4] = system: green foxtail (Setaria viridis, SETVI); test: as above; conditions: POST emergent, 14 days after application, scale 0-100
Description: as §1, §2, §3, §4, §5

[5] = system: ivyleaf morningglory (Ipomoea hederacea, IPOHE); test: as above; conditions: POST emergent, 14 days after application, scale 0-100
Description: as §1, §2, §3, §4, §5

[6] = system: johnsongrass (Sorghum halepense, SORHA); test: as above; conditions: POST emergent, 14 days after application, scale 0-100
Description: as §1, §2, §3, §4, §5

[7] = system: lambsquarters (Chenopodium album, CHEAL); test: as above; conditions: POST emergent, 14 days after application, scale 0-100
Description: as §1, §2, §3, §4, §5

[8] = system: large crabgrass (Digitaria sanguinalis, DIGSA); test: as above; conditions: POST emergent, 14 days after application, scale 0-100
Description: as §1, §2, §3, §4, §5

[9] = system: redroot pigweed (Amaranthus retrofiexus, AMARE); test: as above; conditions: POST emergent, 14 days after application
Description: as §1, §2, §3, §4, §5

[10] = system: sicklepod (Cassia obtusifolia, CASOB); test: as above; conditions: POST emergent, 14 days after application, scale 0-100
Description: as §1, §2, §3, §4, §5

[11] = system: velvetleaf (Abutilon theophrasti, ABUTH); test: as above; conditions: POST emergent, 14 days after application, scale 0-100
Description: as §1, §2, §3, §4, §5

[12] = system: field corn (Zea mays L., var. Dekalb 535, CORN); test: Greenhouse herbicide screen, post-emerge application, crop damage rating; conditions: POST emergent, 14 days after application, scale 0-100
Description: as §1, §2, §3, §4, §5

[13] = system: upland rice (Oryza sp., var.Cocodrie, RICE); test: as above; conditions: POST emergent, 14 days after application, scale 0-100
Description: as §1, §2, §3, §4, §5

[14] = system: barnyardgrass (Echinochloa crus-galli, ECHCG); test: Greenhouse herbicide screen, pre-emerge application, phytotoxicity rating; conditions: PRE emergent, 14 days after application, rating scale 0-100
Description: as §1, §2, §3, §4, §5

[15] = system: cocklebur (Xanthium strumarium, XANST); test: as above; conditions: PRE emergent, 14 days after application, rating scale 0-100
Description: as §1, §2, §3, §4, §5

[16] = system: common ragweed (Ambrosia artemisiifolia L., AMBEL); test: as above; conditions: PRE emergent, 14 days after application, rating scale 0-100
Description: as §1, §2, §3, §4, §5

[17] = system: green foxtail (Setaria viridis, SETVI); test: as above; conditions: PRE emergent, 14 days after application, rating scale 0-100
Description: as §1, §2, §3, §4, §5

[18] = system: ivyleaf morningglory (Ipomoea hederacea, IPOHE); test: as above; conditions: PRE emergent, 14 days after application, rating scale 0-100
Description: as §1, §2, §3, §4, §5

[19] = system: johnsongrass (Sorghum halepense, SORHA); test: as above; conditions: PRE emergent, 14 days after application, rating scale 0-100
Description: as §1, §2, §3, §4, §5

[20] = system: lambsquarters (Chenopodium album, CHEAL); test: as above; conditions: PRE emergent, 14 days after application, rating scale 0-100
Description: as §1, §2, §3, §4, §5

[21] = system: large crabgrass (Digitaria sanguinalis, DIGSA); test: as above; conditions: PRE emergent, 14 days after application, rating scale 0-100
Description: as §1, §2, §3, §4, §5

[22] = system: redroot pigweed (Amaranthus retrofiexus, AMARE); test: as above; conditions: PRE emergent, 14 days after application, rating scale 0-100
Description: as §1, §2, §3, §4, §5

[23] = system: sicklepod (Cassia obtusifolia, CASOB); test: as above; conditions: PRE emergent, 14 days after application, rating scale 0-100
Description: as §1, §2, §3, §4, §5

[24] = system: velvetleaf (Abutilon theophrasti, ABUTH); test: as above; conditions: PRE emergent, 14 days after application, rating scale 0-100
Description: as §1, §2, §3, §4, §5

[25] = system: field corn (Zea mays L., var. Dekalb 535, CORN); test: Greenhouse herbicide screen, pre-emerge application, crop damage rating; conditions: PRE emergent, 14 days after application, rating scale 0-100
Description: as §1, §2, §3, §4, §5

[26] = system: upland rice (Oryza sp., var.Cocodrie, RICE); test: as above; conditions: PRE emergent, 14 days after application, rating scale 0-100
Description: as §1, §2, §3, §4, §5

In the case of `CN1CCN(NC(=O)c2cc(-n3c(=O)cc(C(F)(F)F)n(C)c3=S)c(F)cc2Cl)CC1` [Compound 1-14], the “phytotoxicity rating ECHCO” value ([1]; 63 g ai/ha) is reported as 0, the “phytotoxicity rating ECHCO” value ([1]; 250 g ai/ha) is reported as 0 and the “phytotoxicity rating XANST” value ([2]; 63 g ai/ha) is reported as 70. For the same molecule, the “phytotoxicity rating XANST” value ([2]; 250 g ai/ha) was 70, the “phytotoxicity rating AMBEL” value ([3]; 63 g ai/ha) was 0 and the “phytotoxicity rating AMBEL” value ([3]; 250 g ai/ha) was 50. The “phytotoxicity rating SETVI” value ([4]; 63 g ai/ha) was 0, the “phytotoxicity rating SETVI” value ([4]; 250 g ai/ha) was 0 and the “phytotoxicity rating IPOHE” value ([5]; 63 g ai/ha) was 100. The “phytotoxicity rating IPOHE” value ([5]; 250 g ai/ha) was 100, the “phytotoxicity rating SORHA” value ([6]; 63 g ai/ha) was 0 and the “phytotoxicity rating SORHA” value ([6]; 250 g ai/ha) was 0. The “phytotoxicity rating CHEAL” value ([7]; 63 g ai/ha) was 0, the “phytotoxicity rating CHEAL” value ([7]; 250 g ai/ha) was 70 and the “phytotoxicity rating DIGSA” value ([8]; 63 g ai/ha) was 0. For the same molecule, the “phytotoxicity rating DIGSA” value ([8]; 250 g ai/ha) was 0, the “phytotoxicity rating AMARE” value ([9]; 63 g ai/ha, scale 0-100 (0 no damage, 100 complete death)) was 0 and the “phytotoxicity rating AMARE” value ([9]; 250 g ai/ha, scale 0-100) was 30. The “phytotoxicity rating CASOB” value ([10]; 63 g ai/ha) was 0, the “phytotoxicity rating CASOB” value ([10]; 250 g ai/ha) was 0 and the “phytotoxicity rating ABUTH” value ([11]; 63 g ai/ha) was 0. For the same molecule, the “phytotoxicity rating ABUTH” value ([11]; 250 g ai/ha) was 35, the “crop damage rating CORN” value ([12]; 63 g ai/ha) was 0 and the “crop damage rating CORN” value ([12]; 250 g ai/ha) was 50. For the same molecule, the “crop damage rating RICE” value ([13]; 63 g ai/ha) was 0, the “crop damage rating RICE” value ([13]; 250 g ai/ha) was 0 and the “phytotoxicity rating ECHCG” value ([14]; 63 g ai/ha) was 0. The “phytotoxicity rating ECHCG” value ([14]; 250 g ai/ha) was 70, the “phytotoxicity rating XANST” value ([15]; 63 g ai/ha) was 40 and the “phytotoxicity rating XANST” value ([15]; 250 g ai/ha) was 65. The “phytotoxicity rating AMBEL” value ([16]; 63 g ai/ha) was 35, the “phytotoxicity rating AMBEL” value ([16]; 250 g ai/ha) was 70 and the “phytotoxicity rating SETVI” value ([17]; 63 g ai/ha) was 0. For the same molecule, the “phytotoxicity rating SETVI” value ([17]; 250 g ai/ha) was 55, the “phytotoxicity rating IPOHE” value ([18]; 63 g ai/ha) was 10 and the “phytotoxicity rating IPOHE” value ([18]; 250 g ai/ha) was 65. The “phytotoxicity rating SORHA” value ([19]; 63 g ai/ha) was 70, the “phytotoxicity rating SORHA” value ([19]; 250 g ai/ha) was 95 and the “phytotoxicity rating CHEAL” value ([20]; 63 g ai/ha) was 100. For the same molecule, the “phytotoxicity rating CHEAL” value ([20]; 250 g ai/ha) was 100, the “phytotoxicity rating DIGSA” value ([21]; 63 g ai/ha) was 55 and the “phytotoxicity rating DIGSA” value ([21]; 250 g ai/ha) was 70. The “phytotoxicity rating AMARE” value ([22]; 63 g ai/ha) was 95, the “phytotoxicity rating AMARE” value ([22]; 250 g ai/ha) was 100 and the “phytotoxicity rating CASOB” value ([23]; 63 g ai/ha) was 0. The “phytotoxicity rating CASOB” value ([23]; 250 g ai/ha) was 50, the “phytotoxicity rating ABUTH” value ([24]; 63 g ai/ha) was 30 and the “phytotoxicity rating ABUTH” value ([24]; 250 g ai/ha) was 90. The “crop damage rating CORN” value ([25]; 63 g ai/ha) was 0, the “crop damage rating CORN” value ([25]; 250 g ai/ha) was 0 and the “crop damage rating RICE” value ([26]; 63 g ai/ha) was 0. The “crop damage rating RICE” value ([26]; 250 g ai/ha) was 50.
